What was measured:
bedstraw = assay: Test B pre/postemergence bedstraw; format: in vivo, Galium aparine; settings: Postemergence
Method in brief: (§1)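 Response is a visual 0-to-10 score relative to untreated plants, where 0 means no effect and 10 means complete control, taken twelve to sixteen days after application. Treatments went onto soil at planting and onto foliage of 1- to 4-leaf plants, using a surfactant-containing non-phytotoxic solvent.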

blackgrass = assay: Test B pre/postemergence blackgrass; format: in vivo, Alopecurus myosuroides
Method in brief: as §1

surinam grass = assay: Test B pre/postemergence surinam grass; format: in vivo, Brachiaria decumbens
Method in brief: as §1

corn = assay: Test B pre/postemergence corn; format: in vivo, Zea mays
Method in brief: as §1

giant foxtail = assay: Test B pre/postemergence giant foxtail; format: in vivo, Setaria faberii
Method in brief: as §1

morningglory = assay: Test B pre/postemergence morningglory; format: in vivo, Ipomoea hederacea
Method in brief: as §1

pigweed = assay: Test B pre/postemergence pigweed; format: in vivo, Amaranthus retroflexus
Method in brief: as §1

rape = assay: Test B pre/postemergence rape; format: in vivo, Brassica napus
Method in brief: as §1

soybean = assay: Test B pre/postemergence soybean; format: in vivo, Glycine max
Method in brief: as §1

sugar beet = assay: Test B pre/postemergence sugar beet; format: in vivo, Beta vulgaris
Method in brief: as §1

velvetleaf = assay: Test B pre/postemergence velvetleaf; format: in vivo, Abutilon theophrasti
Method in brief: as §1

purple nutsedge = assay: Test B pre/postemergence purple nutsedge; format: in vivo, Cyperus rotundus
Method in brief: as §1

rice = assay: Test B flood test rice; format: in vivo, Oryza sativa
Method in brief: (§2)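 Plants were grown to the 2-leaf stage before treatment with test chemical, then held in a greenhouse for twelve to sixteen days. Injury was visually rated against untreated controls on a 0–10 scale, where 0 is no effect and 10 is complete control.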

smallflower flatsedge = assay: Test B flood test smallflower flatsedge; format: in vivo, Cyperus difformis
Method in brief: as §2

duck salad = assay: Test B flood test duck salad; format: in vivo, Heteranthera limosa
Method in brief: as §2

bamyardgrass = assay: Test B flood test barnyardgrass; format: in vivo, Echinochloa crus-galli
Method in brief: as §2

[1] = Postemergence, Rate 250 g/ha, scale 0 to 10
[2] = Postemergence, Rate 500 g/ha, scale of 0 to 10 where 0 is no effect and 10 is complete control
[3] = Preemergence, Rate 62 g/ha, scale of 0 to 10 where 0 is no effect and 10 is complete control
[4] = Preemergence, Rate 125 g/ha, scale of 0 to 10 where 0 is no effect and 10 is complete control
[5] = Preemergence, Rate 250 g/ha, scale 0 to 10, 0 is no effect, 10 is complete control
[6] = Preemergence, Rate 500 g/ha, scale 0 to 10, 0 is no effect, 10 is complete control
[7] = Rate 62 g/ha, Postemergence, scale 0 to 10, 0 no effect, 10 complete control
[8] = Rate 125 g/ha, Postemergence, scale 0 to 10, 0 is no effect, 10 is complete control
[9] = Rate 62 g/ha, flood test species, Pre-emergence, visual evaluation after twelve to sixteen days
[10] = Rate 125 g/ha, under heading Pre-emergence, flood test species, visual evaluation after twelve to sixteen days
[11] = Rate 250 g/ha, Pre-emergence (flood test species), scale 0 to 10, 0 is no effect, 10 is complete control
[12] = Rate 500 g/ha, Pre-emergence, flood test species, scale 0 to 10 (0 no effect, 10 complete control)

CC(C)N(C(=O)n1oc(=O)n(CCl)c1=O)c1ccc(F)cc1F [Compound 437]
Bedstraw plant response rating (bedstraw; Rate 250 g/ha, scale 0 to 10): 0
Bedstraw plant response rating (bedstraw; Rate 62 g/ha, scale 0 to 10, 0 no effect, 10 complete control): 0
Bedstraw plant response rating (bedstraw; Rate 125 g/ha, scale 0 to 10, 0 is no effect, 10 is complete control): 0
Blackgrass plant response rating (blackgrass; [1]): 0
Blackgrass plant response rating (blackgrass; [2]): 0
Plant response rating, Blackgrass (blackgrass; [3]): 0
Plant response rating, Blackgrass (blackgrass; [4]): 0
Blackgrass plant response rating (blackgrass; [5]): 0
Blackgrass plant response rating (blackgrass; [6]): 0
Blackgrass plant response rating (blackgrass; [7]): 0
Blackgrass plant response rating (blackgrass; [8]): 0
B. signalgrass plant response rating (surinam grass; Postemergence, Rate 250 g/ha, scale 0 to 10, 0 no effect, 10 complete control): 0
B. signalgrass plant response rating (surinam grass; [2]): 0
Plant response rating, B. signalgrass (surinam grass; [3]): 0
Plant response rating, B. signalgrass (surinam grass; [4]): 0
B. signalgrass plant response rating (surinam grass; [5]): 0
B. signalgrass plant response rating (surinam grass; [6]): 0
B. signalgrass plant response rating (surinam grass; [7]): 0
B. signalgrass plant response rating (surinam grass; [8]): 0
Corn plant response rating (corn; [1]): 0
Corn plant response rating (corn; [2]): 0
Plant response rating, Corn (corn; [3]): 0
Plant response rating, Corn (corn; [4]): 0
Corn plant response rating (corn; [5]): 0
Corn plant response rating (corn; [6]): 0
Corn plant response rating (corn; [7]): 0
Corn plant response rating (corn; [8]): 0
Giant foxtail plant response rating (giant foxtail; [1]): 0
Giant foxtail plant response rating (giant foxtail; [2]): 7
Plant response rating, Giant foxtail (giant foxtail; [3]): 0
Plant response rating, Giant foxtail (giant foxtail; [4]): 0
Giant foxtail plant response rating (giant foxtail; [5]): 0
Giant foxtail plant response rating (giant foxtail; [6]): 3
Giant foxtail plant response rating (giant foxtail; [7]): 0
Giant foxtail plant response rating (giant foxtail; [8]): 0
Morningglory plant response rating (morningglory; [1]): 4
Morningglory plant response rating (morningglory; [2]): 9
Plant response rating, Morningglory (morningglory; [3]): 0
Plant response rating, Morningglory (morningglory; [4]): 0
Morningglory plant response rating (morningglory; [5]): 0
Morningglory plant response rating (morningglory; [6]): 0
Morningglory plant response rating (morningglory; [7]): 0
Morningglory plant response rating (morningglory; [8]): 1
Redroot pigweed plant response rating (pigweed; [1]): 0
Redroot pigweed plant response rating (pigweed; [2]): 0
Plant response rating, Redroot pigweed (pigweed; [3]): 0
Plant response rating, Redroot pigweed (pigweed; [4]): 0
Redroot pigweed plant response rating (pigweed; [5]): 0
Redroot pigweed plant response rating (pigweed; [6]): 0
Redroot pigweed plant response rating (pigweed; [7]): 0
Redroot pigweed plant response rating (pigweed; [8]): 0
Rape plant response rating (rape; [1]): 0
Rape plant response rating (rape; [2]): 0
Plant response rating, Rape (rape; [3]): 0
Plant response rating, Rape (rape; [4]): 0
Rape plant response rating (rape; [5]): 0
Rape plant response rating (rape; [6]): 0
Rape plant response rating (rape; [7]): 0
Rape plant response rating (rape; [8]): 0
Soybean plant response rating (soybean; [1]): 0
Soybean plant response rating (soybean; [2]): 2
Plant response rating, Soybean (soybean; [3]): 0
Plant response rating, Soybean (soybean; [4]): 0
Soybean plant response rating (soybean; [5]): 0
Soybean plant response rating (soybean; [6]): 0
Soybean plant response rating (soybean; [7]): 0
Soybean plant response rating (soybean; [8]): 0
Sugarbeets plant response rating (sugar beet; [1]): 0
Sugarbeets plant response rating (sugar beet; [2]): 0
Plant response rating, Sugarbeets (sugar beet; [3]): 0
Plant response rating, Sugarbeets (sugar beet; [4]): 0
Sugarbeets plant response rating (sugar beet; [5]): 0
Sugarbeets plant response rating (sugar beet; [6]): 0
Sugarbeets plant response rating (sugar beet; [7]): 0
Sugarbeets plant response rating (sugar beet; [8]): 0
Velvetleaf plant response rating (velvetleaf; [1]): 0
Velvetleaf plant response rating (velvetleaf; [2]): 0
Plant response rating, Velvetleaf (velvetleaf; [3]): 0
Plant response rating, Velvetleaf (velvetleaf; [4]): 0
Velvetleaf plant response rating (velvetleaf; [5]): 0
Velvetleaf plant response rating (velvetleaf; [6]): 0
Velvetleaf plant response rating (velvetleaf; [7]): 0
Velvetleaf plant response rating (velvetleaf; [8]): 0
Nutsedge plant response rating (purple nutsedge; [1]): 0
Nutsedge plant response rating (purple nutsedge; [2]): 0
Plant response rating, Nutsedge (purple nutsedge; [3]): 0
Plant response rating, Nutsedge (purple nutsedge; [4]): 0
Nutsedge plant response rating (purple nutsedge; [5]): 0
Nutsedge plant response rating (purple nutsedge; [6]): 0
Nutsedge plant response rating (purple nutsedge; [7]): 0
Nutsedge plant response rating (purple nutsedge; [8]): 0
Plant response rating, Rice (0 to 10 scale, 0 is no effect, 10 is complete control) (rice; [9]): 0
Rice plant response rating (0 to 10 scale, 0 is no effect, 10 is complete control) (rice; [10]): 0
Rice plant response rating (rice; [11]): 0
Rice plant response rating (rice; [12]): 0
Plant response rating, S. Flatsedge (0 to 10 scale, 0 is no effect, 10 is complete control) (smallflower flatsedge; [9]): 0
S. Flatsedge plant response rating (0 to 10 scale, 0 is no effect, 10 is complete control) (smallflower flatsedge; [10]): 0
S. Flatsedge plant response rating (smallflower flatsedge; [11]): 0
S. Flatsedge plant response rating (smallflower flatsedge; [12]): 0
Plant response rating, Ducksalad (0 to 10 scale, 0 is no effect, 10 is complete control) (duck salad; [9]): 0
Ducksalad plant response rating (0 to 10 scale, 0 is no effect, 10 is complete control) (duck salad; [10]): 0
Ducksalad plant response rating (duck salad; [11]): 0
Ducksalad plant response rating (duck salad; [12]): 0
Plant response rating, Barnyardgrass (0 to 10 scale, 0 is no effect, 10 is complete control) (bamyardgrass; [9]): 0
Barnyardgrass plant response rating (0 to 10 scale, 0 is no effect, 10 is complete control) (bamyardgrass; [10]): 0
Barnyardgrass plant response rating (bamyardgrass; [11]): 0
Barnyardgrass plant response rating (bamyardgrass; [12]): 0
